The subject of the test is 786-0 complex spheroid viability. Briefly: Anticancer human tumor 786-0 cell line growth inhibition.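 As to all read-outs here: spheroids exposed to agents for seven days before readout.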 The note with it: for viability, T/C: stronger effect = lower value. The method in brief: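 Multicellular complex spheroids of tumor cells with human endothelial cells (HUVEC) and mesenchymal stem cells; the LSD1 inhibitor iadademstat was combined with standard-of-care or investigational agents. Top concentration at or near clinical Cmax, half-log dilutions; final DMSO ≤0.25%.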

The mark [1] stands for this setting: curve of first compound, second compound 0.1 µM.
Setting [2] is: curve of first compound, second compound 0.316 µM.
The mark [3] stands for this setting: curve of first compound, second compound 1 µM.
The mark [4] stands for this setting: curve of first compound, second compound 3.16 µM.
Setting [5] is: curve of first compound, second compound 10 µM.
The mark [6] stands for this setting: second compound 0.1 µM, first compound 0.0316 µM.
The mark [7] stands for this setting: second compound 0.1 µM, first compound 0.1 µM.
[8] abbreviates: second compound 0.1 µM, first compound 0.316 µM.
Setting [9] is: second compound 0.1 µM, first compound 1 µM.
Setting [10] is: second compound 0.1 µM, first compound 3.16 µM.
The mark [11] stands for this setting: second compound 0.1 µM, first compound 10 µM.
The mark [12] stands for this setting: second compound 0.316 µM, first compound 0.0316 µM.
[13] abbreviates: second compound 0.316 µM, first compound 0.1 µM.
[14] abbreviates: second compound 0.316 µM, first compound 0.316 µM.
The mark [15] stands for this setting: second compound 0.316 µM, first compound 1 µM.
Where [16] appears, read: second compound 0.316 µM, first compound 3.16 µM.
Setting [17] is: second compound 0.316 µM, first compound 10 µM.
[18] abbreviates: second compound 1 µM, first compound 0.0316 µM.
Where [19] appears, read: second compound 1 µM, first compound 0.1 µM.
[20] abbreviates: second compound 1 µM, first compound 0.316 µM.
The mark [21] stands for this setting: second compound 1 µM, first compound 1 µM.
Where [22] appears, read: second compound 1 µM, first compound 3.16 µM.
Where [23] appears, read: second compound 1 µM, first compound 10 µM.
Where [24] appears, read: second compound 3.16 µM, first compound 0.0316 µM.
Setting [25] is: second compound 3.16 µM, first compound 0.1 µM.
The mark [26] stands for this setting: second compound 3.16 µM, first compound 0.316 µM.
[27] abbreviates: second compound 3.16 µM, first compound 1 µM.
Setting [28] is: second compound 3.16 µM, first compound 3.16 µM.
Where [29] appears, read: second compound 3.16 µM, first compound 10 µM.
Where [30] appears, read: second compound 10 µM, first compound 0.0316 µM.
Where [31] appears, read: second compound 10 µM, first compound 0.1 µM.
Where [32] appears, read: second compound 10 µM, first compound 0.316 µM.
[33] abbreviates: second compound 10 µM, first compound 1 µM.
The mark [34] stands for this setting: second compound 10 µM, first compound 3.16 µM.
Setting [35] is: second compound 10 µM, first compound 10 µM.

Several values for one entry are separate records, joined by “and”; a condition that tells them apart may be missing. Identical values can stand only once.

On to `CC(C)c1c(-c2ccccc2)nc2c(C#N)c[nH]n2c1=O` + NC1CC1c1ccc(-c2cccc(O)c2)cc1, for which the IC50 (in general, the concentration that gives 50% inhibition) is, setting by setting: under setting [1], over 10000 nM; under setting [2], over 10000 nM; under setting [3], over 10000 nM; under setting [4], over 10000 nM; under setting [5], over 10000 nM. Besides, the viability, T/C (commonly the result in the treated group divided by that in the control group, in per cent) under setting [6] is 114%; the viability, T/C under setting [7] was 120%; the viability, T/C under setting [8] is 124%; the viability, T/C under setting [9] was 121%; the viability, T/C under setting [10] was 116%; the viability, T/C under setting [11] is 119%. Moreover, the viability, T/C was 118% under setting [12]; 117% under setting [13]; 115% under setting [14]; 121% under setting [15]; 119% under setting [16]; 115% under setting [17]. Moreover, the viability, T/C is 117% under setting [18]; 121% under setting [19]; 123% under setting [20]; 118% under setting [21]; 116% under setting [22]; 113% under setting [23]. Further, the viability, T/C by setting is: under setting [24], 113%; under setting [25], 113%; under setting [26], 121%; under setting [27], 121%; under setting [28], 117%; under setting [29], 116%. The viability, T/C was 103% under setting [30]; 106% under setting [31]; 110% under setting [32]; 107% under setting [33]; 107% under setting [34]; 113% under setting [35].

Turning to `CC[C@@]1(O)C(=O)OCc2c1cc1n(c2=O)Cc2cc3c(CN(C)C)c(O)ccc3nc2-1`, the viability, T/C was 103% and 99.7% (compound 0.000316 µM); 96.7% and 96.5% (compound 0.001 µM); 65.8% and 70.9% (compound 0.00316 µM); 15.6% and 24.7% (compound 0.01 µM); 9.17% and 10.9% (compound 0.0316 µM); 4.15% and 4.08% (compound 0.1 µM). Moreover, the IC50 (curve of compound) was 4.54 nM and 5.35 nM.

With `COc1cc(Nc2ncc3c(n2)-c2ccc(Cl)cc2C(c2c(F)cccc2OC)=NC3)ccc1C(=O)O`, the viability, T/C is, setting by setting: (compound 0.00316 µM) 109% and 97.4%; (compound 0.01 µM) 90.9% and 98.9%; (compound 0.0316 µM) 67.5% and 84.2%; (compound 0.1 µM) 66.5% and 68.7%; (compound 0.316 µM) 54.4% and 56%; (compound 1 µM) 37.1% and 44.9%. Further, where the note is “curve of compound”, the IC50 is 329 nM and 565 nM.

Take `Nc1ncn(C2CC(O)C(CO)S2)c(=O)n1` (centres undefined) + NC1CCC(NC2CC2c2ccccc2)CC1: the IC50 came to 198 nM under setting [1]; 207 nM under setting [2]; 201 nM under setting [3]; 174 nM under setting [4]; 141 nM under setting [5]. The viability, T/C runs as follows: (second compound 0.1 µM, first compound 0.000949 µM) 127%; (second compound 0.1 µM, first compound 0.003 µM) 127%; (second compound 0.1 µM, first compound 0.00949 µM) 130%; (second compound 0.1 µM, first compound 0.03 µM) 111%; (second compound 0.1 µM, first compound 0.0949 µM) 78.3%; (second compound 0.1 µM, first compound 0.3 µM) 34.1%. In addition, the viability, T/C is, setting by setting: (second compound 0.316 µM, first compound 0.000949 µM) 135%; (second compound 0.316 µM, first compound 0.003 µM) 131%; (second compound 0.316 µM, first compound 0.00949 µM) 130%; (second compound 0.316 µM, first compound 0.03 µM) 120%; (second compound 0.316 µM, first compound 0.0949 µM) 77.1%; (second compound 0.316 µM, first compound 0.3 µM) 37%. Moreover, the viability, T/C (second compound 1 µM, first compound 0.000949 µM) is 122%; the viability, T/C (second compound 1 µM, first compound 0.003 µM) is 123%; the viability, T/C (second compound 1 µM, first compound 0.00949 µM) was 128%; the viability, T/C (second compound 1 µM, first compound 0.03 µM) is 115%; the viability, T/C (second compound 1 µM, first compound 0.0949 µM) was 74.5%; the viability, T/C (second compound 1 µM, first compound 0.3 µM) is 36.9%. Also, the viability, T/C is 117% (second compound 3.16 µM, first compound 0.000949 µM); 126% (second compound 3.16 µM, first compound 0.003 µM); 126% (second compound 3.16 µM, first compound 0.00949 µM); 108% (second compound 3.16 µM, first compound 0.03 µM); 70.2% (second compound 3.16 µM, first compound 0.0949 µM); 32.2% (second compound 3.16 µM, first compound 0.3 µM). Further, the viability, T/C reads like this: (second compound 10 µM, first compound 0.000949 µM) 93.6%; (second compound 10 µM, first compound 0.003 µM) 91.8%; (second compound 10 µM, first compound 0.00949 µM) 104%; (second compound 10 µM, first compound 0.03 µM) 98.6%; (second compound 10 µM, first compound 0.0949 µM) 61.9%; (second compound 10 µM, first compound 0.3 µM) 27%.

As for `CC1(C)CCC(CN2CCN(c3ccc(C(=O)NS(=O)(=O)c4ccc(NCC5CCOCC5)c([N+](=O)[O-])c4)c(Oc4cnc5[nH]ccc5c4)c3)CC2)=C(c2ccc(Cl)cc2)C1` + NC1CC1c1ccc(-c2cccc(O)c2)cc1, the 50% inhibitory concentration (IC50) runs as follows: under setting [1], over 10000 nM; under setting [2], over 10000 nM; under setting [3], over 10000 nM; under setting [4], over 10000 nM; under setting [5], 8090 nM. Further, the viability, T/C is 119% under setting [6]; 114% under setting [7]; 115% under setting [8]; 110% under setting [9]; 103% under setting [10]; 66.6% under setting [11]. In addition, the viability, T/C under setting [12] is 105%; the viability, T/C under setting [13] was 114%; the viability, T/C under setting [14] was 106%; the viability, T/C under setting [15] was 111%; the viability, T/C under setting [16] was 100%; the viability, T/C under setting [17] is 68.6%. The viability, T/C is 113% under setting [18]; 114% under setting [19]; 106% under setting [20]; 106% under setting [21]; 96.3% under setting [22]; 60.9% under setting [23]. Moreover, the viability, T/C was 105% under setting [24]; 110% under setting [25]; 106% under setting [26]; 101% under setting [27]; 93.3% under setting [28]; 57.3% under setting [29]. Moreover, the viability, T/C is, setting by setting: under setting [30], 102%; under setting [31], 95.7%; under setting [32], 103%; under setting [33], 90.8%; under setting [34], 81.6%; under setting [35], 42.6%.

(Values after PubChem BioAssay AID1918944 (Molecular Pharmacology Branch, DTP, NCI, 2023).)
